Data: doi:10.1101/2023.05.23.541938v1, “Exploring the Chain Release Mechanism from an Atypical Apicomplexan Polyketide Synthase” (biorxiv, 2023)

What was measured:
[1] = target: T1, TgTR (TgPKS2 thioester reductase domain) (Toxoplasma gondii, UniProt Z9O203Q0F3); assay: isothermal titration calorimetry; type: binding; conditions: 25 mM Tris-HCl pH 7.6, 25 mM NaCl, N fixed at 1
T1 construct: isolated C-terminal thioester reductase (TR) domain of TgPKS2; E. coli codon optimized, expressed in E. coli BL21(DE3) with GroES/EL-TF chaperones

[2] = target: T1, TgTR (TgPKS2 thioester reductase domain); assay: thermal shift assay (SYPRO orange); type: binding; conditions: 1 mM compound, 3 µM TgTR, 10 mM Tris-HCl pH 8.0, 50 mM NaCl, 5% glycerol
[3] = system: TgTR (TgPKS2 thioester reductase domain); conditions: saturating octanal (2.5 mM) and NADH; N147T in domain numbering

Which Kd ([1]; excess NADH (1 mM)) does the source give for CCCCCCCC(=O)SCCNC(=O)CCNC(=O)[C@H](O)C(C)(C)COP(=O)(O)OP(=O)(O)OC[C@H]1O[C@@H](n2cnc3c(N)ncnc32)[C@H](O)[C@@H]1OP(=O)(O)O [octanoyl-CoA] here?
Its Kd is 89.6 ± 3.9 µM.

What about the Tm shift [2] of the same compound?
The Tm shift was “NADH, octanoyl-CoA, and octanal increased the TgTR Tm compared to the DMSO control”.

With NC(=O)C1=CN([C@@H]2O[C@H](COP(=O)(O)OP(=O)(O)OC[C@H]3O[C@@H](n4cnc5c(N)ncnc54)[C@H](O)[C@@H]3O)[C@@H](O)[C@H]2O)C=CC1 [NADH] as the compound, how does the Kd ([1]; no other ligand) read?
The Kd was 7.64 ± 0.59 µM.

What about the Tm shift [2] of the same compound?
The Tm shift was “NADH, octanoyl-CoA, and octanal increased the TgTR Tm compared to the DMSO control”.

Which results are given for CCCCCCCC=O [octanal]?
Kd ([1]; excess NADH (1 mM)): 146 ± 31 µM; Tm shift [2]: NADH, octanoyl-CoA, and octanal increased the TgTR Tm compared to the DMSO control; NADH fluorescence consumption assay, single-point relative rate [3]: no significant change was observed with octanal
